According to patent US20190151307A1 (priority 2017, published 2019):

Assays:
[1] = clinical; type: in vivo, human; conditions: single dose BIC 75 mg, fed, RIF 600 mg
Description: This was a Phase 1, open-label, multiple-dose, multiple-cohort, adaptive design study in healthy adult subjects.
The duration of dosing was 9 days (with a 3-day washout between the first and second doses of study treatment). The study duration (not including screening) was approximately 21 days. The study had n=15 subjects.
In addition, the following multiple-dose plasma PK parameters of GS-9883 were calculated, as applicable: Ctau, Cmax, Clast, AUCtau, Tmax, Tlast, t1/2, and CL/F.
Serial blood samples for intensive PK sampling were collected at the following time points relative to the morning dose of study drug(s) administered: 0 (pre-dose) and 0.5, 1, 1.5, 2, 3, 4, 6, 8, 10, 12, 16, 24, 36, 48, 72, and 96 hours post-dose on Days 1 and 15. Daily pre-dose PK sampling was collected at days 10 and 14.
The ANOVA model included treatment as a fixed effect and subject as a random effect.

[2] = Phase 1 study: steady-state plasma PK of TAF and TFV after B/F/TAF BID with rifampin vs B/F/TAF QD alone; type: in vivo, human; conditions: BID TAF administration (B/F/TAF BID+RIF), compared to prior PK results of TDF-containing regimens, FIG. 2
Description: This study evaluated the steady state pharmacokinetics of TAF, TAF metabolite TFV, and emtricitabine (FTC) following coadministration of bictegravir/emtricitabine/tenofovir alafenamide (B/F/TAF) fixed dose combination (FDC) twice daily with rifampin 600 mg once daily compared to those of B/F/TAF FDC once daily administered alone.
In this Phase 1, open-label, parallel multiple dose study, healthy volunteers were assigned to one of two cohorts (cohort 1 (n=26) or cohort 2 (n=26)) and received study treatments beginning on day 1 and continuing for 28 days (cohort 1) or 35 days (cohort 2).
The duration of the study was approximately 57 days for cohort 1 and approximately 44 days for cohort 2. […]
Pharmacokinetic assessments of plasma PK and PBMC PK were evaluated. […] PK parameters of TFV-DP and FTC-TP in PBMCs were calculated as applicable and included AUCtau, Ctrough, Cmax, accumulation ratios, and t1/2 with and without RIF. […]
Plasma concentrations of TAF and TFV were determined and pharmacokinetics were evaluated as applicable.
Plasma concentrations were determined using validated liquid chromatography-tandem mass spectrometry (LC/MS/MS) assays. Intracellular PBMC TFV-DP concentrations were determined via a validated LC/MS/MS assay combined with PBMC cell counting via a DNA quantitation procedure. […]

[3] = tested on: HIV; conditions: cited from earlier work
[4] = intracellular TFV-DP with TDF; cited from earlier work
[5] = peripheral blood mononuclear cells (PBMC) isolated from patients; cited from earlier work

## O=C(NCc1c(F)cc(F)cc1F)c1cn2c(c(O)c1=O)C(=O)N1[C@H]3CC[C@H](C3)O[C@@H]1C2 [BIC]
[1]; human, in vivo, BIC t1/2, plasma, median per text
  half-life: ~1090 min
[1]; plasma
  BIC % AUCexp, Mean (% CV): 3.1%
  BIC CL/F, Mean (% CV): 545.1 mL/h
  BIC Clast, Mean (% CV): 192.7 ng/mL
  BIC Tlast: 95.93 h

## CC(C)OC(=O)[C@H](C)N[P@](=O)(CO[C@H](C)Cn1cnc2c(N)ncnc21)Oc1ccccc1 [TAF, 9-[(R)-2-[[(S)-[[(S)-1-(isopropoxycarbonyl)ethyl]amino]phenoxyphosphinyl]-methoxy]propyl]adenine]
[2]
  total overall systemic TFV plasma exposure over 24 hours vs TDF-containing regimens: markedly lower
[3]
  enhancement in anti-HIV activity in cell culture of TAF over TFV: 600 fold

## CC(C)OC(=O)OCOP(=O)(CO[C@H](C)Cn1cnc2c(N)ncnc21)OCOC(=O)OC(C)C [TDF, 9-[(R)-2-[[bis[[(isopropoxycarbonyl)oxy]methoxy]phosphinyl]methoxy]propyl]adenine]
[4]
  historical steady-state TFV-DP threshold effectiveness concentration: 85-222 fmol/10^6 cells

## C[C@@H](Cn1cnc2c(N)ncnc21)OCP(=O)(O)OP(=O)(O)OP(=O)(O)O [TFV-DP]
[5]
  intracellular half-life: 150 h
